From PubChem BioAssay (NCI)
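Dose response: 5 concentrations. Exposure: 48 h. Format: 96-well plates. Endpoint: linear interpolation; highest concentration if not reached. TGI marks complete inhibition of growth.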

Columns and labels:
Test in all cases: DTP human tumour cell line panel, 48 h
MALME-3M melanoma = test system: MALME-3M melanoma
IGROV1 ovarian = test system: IGROV1 ovarian
SNB-19 CNS = test system: SNB-19 CNS
CCRF-CEM leukemia = test system: CCRF-CEM leukemia
U251 CNS = test system: U251 CNS
K-562 leukemia = test system: K-562 leukemia
NCI-H226 lung = test system: NCI-H226 lung
PC-3 prostate = test system: PC-3 prostate
HCC-2998 colon = test system: HCC-2998 colon
HCT-15 colon = test system: HCT-15 colon
KM12 colon = test system: KM12 colon
SF-539 CNS = test system: SF-539 CNS
RXF 393 renal = test system: RXF 393 renal
A549 NSCLC = test system: A549 NSCLC
T-47D breast = test system: T-47D breast
NCI-H522 lung = test system: NCI-H522 lung
NCI/ADR-RES ovarian = test system: NCI/ADR-RES ovarian
TK-10 renal = test system: TK-10 renal
SK-MEL-5 melanoma = test system: SK-MEL-5 melanoma
SN12C renal = test system: SN12C renal
MDA-MB-231 breast = test system: MDA-MB-231 breast
COLO 205 colon = test system: COLO 205 colon
DU-145 prostate = test system: DU-145 prostate
SF-295 CNS = test system: SF-295 CNS
MOLT-4 leukemia = test system: MOLT-4 leukemia
MCF7 breast = test system: MCF7 breast
HOP-62 NSCLC = test system: HOP-62 NSCLC
NCI-H23 lung = test system: NCI-H23 lung
CAKI-1 renal = test system: CAKI-1 renal
SR leukemia = test system: SR leukemia
SK-OV-3 ovarian = test system: SK-OV-3 ovarian
HCT-116 colon = test system: HCT-116 colon
A498 renal = test system: A498 renal
OVCAR-8 ovarian = test system: OVCAR-8 ovarian
ACHN renal = test system: ACHN renal
HOP-92 NSCLC = test system: HOP-92 NSCLC
UACC-257 melanoma = test system: UACC-257 melanoma
SNB-75 CNS = test system: SNB-75 CNS
HS 578T breast = test system: HS 578T breast
HT29 colon = test system: HT29 colon
UO-31 renal = test system: UO-31 renal
MDA-MB-435 = test system: MDA-MB-435
EKVX NSCLC = test system: EKVX NSCLC
UACC-62 melanoma = test system: UACC-62 melanoma
NCI-H460 lung = test system: NCI-H460 lung
MDA-N = test system: MDA-N
OVCAR-3 ovarian = test system: OVCAR-3 ovarian
SK-MEL-28 melanoma = test system: SK-MEL-28 melanoma
786-0 renal = test system: 786-0 renal
SW-620 colon = test system: SW-620 colon
OVCAR-4 ovarian = test system: OVCAR-4 ovarian
BT-549 breast = test system: BT-549 breast
SF-268 CNS = test system: SF-268 CNS
M14 melanoma = test system: M14 melanoma
LOX IMVI melanoma = test system: LOX IMVI melanoma
RPMI-8226 leukemia = test system: RPMI-8226 leukemia
SK-MEL-2 melanoma = test system: SK-MEL-2 melanoma

Measured: TGI

CCn1c(=O)c2c3ccc(O)cc3oc2c2ccc(O)cc21
69.1 µM: T-47D breast
84.5 µM: A498 renal
7.39 µM: EKVX NSCLC
74 µM: HCT-116 colon
> 100 µM: MALME-3M melanoma | IGROV1 ovarian | SNB-19 CNS | CCRF-CEM leukemia | U251 CNS | K-562 leukemia | NCI-H226 lung | PC-3 prostate | HCC-2998 colon | HCT-15 colon | KM12 colon | SF-539 CNS | RXF 393 renal | A549 NSCLC | NCI-H522 lung | NCI/ADR-RES ovarian | TK-10 renal | SK-MEL-5 melanoma | SN12C renal | MDA-MB-231 breast | COLO 205 colon | DU-145 prostate | SF-295 CNS | MOLT-4 leukemia | MCF7 breast | HOP-62 NSCLC | NCI-H23 lung | CAKI-1 renal | SR leukemia | SK-OV-3 ovarian | OVCAR-8 ovarian | HOP-92 NSCLC | UACC-257 melanoma | SNB-75 CNS | HT29 colon | MDA-MB-435 | UACC-62 melanoma | NCI-H460 lung | MDA-N | OVCAR-3 ovarian | SK-MEL-28 melanoma | 786-0 renal | SW-620 colon | OVCAR-4 ovarian | BT-549 breast | SF-268 CNS | M14 melanoma
78.3 µM: UO-31 renal
70.4 µM: HS 578T breast
88 µM: ACHN renal

COc1ccccc1N1C(=O)/C(=C\c2cc(OC)c(OC)c(OC)c2)S(=O)(=O)C1c1ccccc1 (stereo unspecified)
61.1 µM: RXF 393 renal
96.3 µM: MALME-3M melanoma
57.1 µM: RPMI-8226 leukemia
68 µM: SF-539 CNS
41.3 µM: MDA-MB-435
76.5 µM: SK-OV-3 ovarian
> 100 µM: SNB-19 CNS | U251 CNS | K-562 leukemia | NCI-H226 lung | HCC-2998 colon | HCT-15 colon | KM12 colon | LOX IMVI melanoma | A549 NSCLC | T-47D breast | TK-10 renal | SK-MEL-5 melanoma | SN12C renal | MDA-MB-231 breast | COLO 205 colon | DU-145 prostate | SF-295 CNS | MOLT-4 leukemia | MCF7 breast | HOP-62 NSCLC | NCI-H23 lung | CAKI-1 renal | SR leukemia | HCT-116 colon | A498 renal | OVCAR-8 ovarian | ACHN renal | HOP-92 NSCLC | UACC-257 melanoma | HS 578T breast | UO-31 renal | UACC-62 melanoma | NCI-H460 lung | OVCAR-3 ovarian | SK-MEL-28 melanoma | 786-0 renal | SW-620 colon | OVCAR-4 ovarian | SK-MEL-2 melanoma | BT-549 breast | SF-268 CNS | M14 melanoma
48.3 µM: MDA-N
61.2 µM: CCRF-CEM leukemia
50.7 µM: NCI-H522 lung
72.1 µM: NCI/ADR-RES ovarian
